Experiment: Contact angle of the preparation surface to water
Assay type: physicochemical
Settings: flat, smooth tablets prepared from the crystals; water dropped onto the surface
Procedure: The term “contact angle to water” as employed herein means an angle wherein drops of water to be deposited to the surface of preparation compositions such as tablets and the like contact with said surface, which can be used as an indication of hydrophilic nature. For example, such contact angle is measured by forming 1 μL of droplet of pure water (MILLI-Q; MILLIPORE Co.) on the tip of needle (SNSO 52/026; made from stainless steel, inner diameter of 0.26 mm, outer diameter of 0.52 mm; HAMILTON Co.) and evaluating the contact angle at 60 m sec. after the droplet arrives onto the surface of tablet, using a contact angle measuring device (OCA-15 type; Data Physics Co.). When the surface of tablet has curvature, such contact angle is measured by correcting this curvature to straight line at the time when analysis is conducted. Usually, the contact angle is usually measured at room temperature.
As for preparations of which forms are not tablets, contact angles can be measured after molding powders, granules, semisolids and the like contained in such preparation. For example, in the case of capsules, the contact angle thereof can be determined by removing the contents of capsules and molding 200 mg of the contents into a tablet having diameter of 8 mm and thickness of 3.50 mm and having flat and smooth surface.

contact angle of the surface of tablets to water [degree] | SMILES
95 | CC(C)[C@H]1CC[C@H](C(=O)N[C@H](Cc2ccccc2)C(=O)O)CC1 [nateglinide B-type crystals, N-(trans-4-isopropylcyclohexanecarbonyl)-D-phenylalanine]
85 | CC(C)[C@H]1CC[C@H](C(=O)N[C@H](Cc2ccccc2)C(=O)O)CC1 [nateglinide H-type crystals, N-(trans-4-isopropylcyclohexanecarbonyl)-D-phenylalanine]

— patent publication US20040029968A1, “Nateglinide-containing hydrophilic pharmaceutical preparation” (AJINOMOTO CO. INC, priority 2000, published 2004)
